Results: patent US20200030349A1, “PHYSIOLOGICALLY ACTIVE PREPARATION COMPRISING N-ACETYL-GLUCOSAMINE FOR THE TREATMENT OF BACK PAIN” (Natural Products & Drugs GmbH, priority 2017, published 2020)

Assays:
[1] = water solubility; type: physicochemical
Source text: (§1) Advantageously according to the invention, the composition for use in a method for the prophylaxis and/or treatment of back pain and the composition comprising at least two components are in the form of an oral dosage form. An oral dosage form is easy to handle and is accepted by a user without problems. In addition, the user can easily take the composition themself. It is preferably a solid form of administration, in particular in the form of capsules, tablets, dragées, granules and powders. Addition of the composition to functional foods, such as a bar for healthy nutrition, is also possible. Alternatively or in addition, a liquid dosage form, in particular in the form of drops, stable solutions and/or juices, is also possible.

[2] = stability in solution; type: physicochemical; conditions: over pH range
Source text: as §1

water solubility [1]: good water solubility
stability in solution [2]: stable in solution over a wide pH range
Structure (SMILES): CC(=O)N[C@H]1C(O)O[C@H](CO)[C@@H](O)[C@@H]1O (stereo partly drawn) [N-acetyl-glucosamine, N-acetyl-D-glucosamine]
